Experimental data: publication PMC6234229, “The role of loops B and C in determining the potentiation of GABAA receptors by midazolam” (Pharmacology Research & Perspectives, 2018)

Key:
Assay in all cases: Midazolam potentiation of EC10 GABA currents, whole-cell patch clamp, HEK293T
Type in all cases: cell-based
α2β2γ2 GABAA receptor = target: T1, α2β2γ2 GABAA receptor (Homo sapiens, UniProt P18507+P47869+P47870)
T1 construct: expressed in transfected cells; host or cells: HEK293T
Source text: (§1) Human (Homo sapiens) GABAA subunits (α1‐6, β2, γ2s) were subcloned into pcDNA3.1+ vectors with a cytomegalovirus (CMV) promoter. The hβ2 and hα3 sequences were humanized rat (Rattus norvegicus) cDNA with amino acid substitutions made to match the human protein sequence. The α1‐3, α5, β2, and γ2s subunits were a generous gift from Neil L. Harrison (Columbia University Medical Center, NY). The α4 subunit was obtained from GenScript (Piscataway, NJ), and the α6 subunit was a generous gift from Robert L. McDonald (Vanderbilt University, TN). All point mutations (listed in Figure 1C) were introduced using the QuikChange Lightening site‐directed mutagenesis kit (Agilent Technologies, Santa Clara, CA) according to the manufacturer's instructions and were confirmed by sequencing (Eurofins MWG Operon, Louisville, KY).
(§2) Human embryonic kidney cells containing the SV40 T‐antigen (HEK293T) were acquired from American Type Culture Collection (ATCC®, Manassas, VA), catalogue number, CRL3216. HEK293T cells were maintained at 37°C and 5% CO2 in Eagle Minimum Essential Medium (MEM) supplemented with 5% fetal bovine serum (Atlanta Biologicals Inc., Flowery Branch, GA), 40 μM L‐glutamine, 100 U/mL penicillin and 0.1 mM streptomycin. Cells were passaged regularly when they reached 70% confluency using trypsin. Cells were not passaged more than 22 times. New cells were revived from frozen stocks at passage 2‐4. Cells used for in vitro electrophysiology experiments were grown on poly‐D‐lysine‐coated glass coverslips (No.2, VWR, Radnor, PA) and transfected with X‐tremeGENE (Roche Diagnostics, Indianapolis, IN) with the desired receptor subunit cDNAs at a 1:1:1 ratio to express αxβ2γ2s receptors (2 μg total cDNA) and with 0.5 μg green fluorescent protein (GFP) as an expression marker. The γ2s incorporation into receptors was tested with zinc inhibition assays regularly.24 Patch clamp experiments were performed on cells at 24‐72 hours post‐transfection. All experiments were performed at 22°C. Experiments consisted of at least five cells recorded per day from at least two transfections across 3‐4 days to control for cell health and transfection efficiency. At least three cells expressing wild‐type receptors were recorded on days that mutant receptors were tested to provide a time‐matched expression control. All reagents were purchased from Sigma‐Aldrich (St. Louis, MO) unless otherwise stated.
(§3) Extracellular solution contained 161 mM NaCl, 3 mM KCl, 1 mM MgCl2, 1.5 mM CaCl2, 10 mM HEPES, and 6 mM D‐glucose, adjusted to pH 7.4 with NaOH (320‐330 mOsm). […] The perfusion system was controlled by protocols written in pClamp 9 (Molecular Devices, LLC., Sunnyvale, CA). Whole‐cell currents were recorded at ‐60 mV, filtered at 100 Hz and sampled at 200 Hz with a MultiClamp 700B amplifier (Molecular Devices, LLC) and DigiData 1322A (Molecular Devices, LLC) digitizer. […] Cells were recorded with the midazolam protocol no more than two times to avoid desensitization and incomplete washout or irreversible modulation.
(§4) Recordings were analyzed using MATLAB (Math Works, Inc., Natick, MA). […] The maximum peak current, EC50 and Hill coefficient were estimated for assays from each cell. When Hill parameters are estimated from whole‐cell recordings, the changes in the parameters across receptor conditions can be ascribed to the following changes in receptor physiology. Changes in maximum current can be due to changes in the single‐channel conductance or the rate of desensitization. Changes in cell surface receptor expression can cause minor changes in maximum current, but are unlikely to occur in the time course of our experimental protocol. […] More often minor changes in the Hill coefficient are attributed to the altered homogeneity in the receptor population expressed by the HEK293T cell. For example, a shallower Hill coefficient could be caused by a shift in the population of receptors from mostly αβγ receptors to a combination of both αβ and αβγ receptors.

[1] = target: T2, α3(H126R)β2γ2 GABAA receptor (Homo sapiens, UniProt P18507+P34903+P47870, H154R)
T2 construct: expressed in transfected cells; host or cells: HEK293T
Source text: as §1, §2, §3, §4

[2] = target: T3, α3(T187P)β2γ2 GABAA receptor (Homo sapiens, UniProt P18507+P34903+P47870, T215P)
T3 construct: expressed in transfected cells; host or cells: HEK293T
Source text: as §1, §2, §3, §4

[3] = target: T4, α4(P161T)β2γ2 GABAA receptor (Homo sapiens, UniProt P18507+P47870+P48169, P196T); conditions: for Midazolam potentiation (%): α4(P161T)
T4 construct: expressed in transfected cells; host or cells: HEK293T
Source text: as §1, §2, §3, §4

α4β2γ2 GABAA receptor = target: T5, α4β2γ2 GABAA receptor (Homo sapiens, UniProt P18507+P47870+P48169); conditions: for Midazolam potentiation (%): α4β2γ2
T5 construct: expressed in transfected cells; host or cells: HEK293T
Source text: as §1, §2, §3, §4

[4] = target: T6, α5(H105R)β2γ2 GABAA receptor (Homo sapiens, UniProt P18507+P31644+P47870, H136R)
T6 construct: expressed in transfected cells; host or cells: HEK293T
Source text: as §1, §2, §3, §4

[5] = target: T7, α5(P166T)β2γ2 GABAA receptor (Homo sapiens, UniProt P18507+P31644+P47870, P197T)
T7 construct: expressed in transfected cells; host or cells: HEK293T
Source text: as §1, §2, §3, §4

T1 sequence (P47869 29-451): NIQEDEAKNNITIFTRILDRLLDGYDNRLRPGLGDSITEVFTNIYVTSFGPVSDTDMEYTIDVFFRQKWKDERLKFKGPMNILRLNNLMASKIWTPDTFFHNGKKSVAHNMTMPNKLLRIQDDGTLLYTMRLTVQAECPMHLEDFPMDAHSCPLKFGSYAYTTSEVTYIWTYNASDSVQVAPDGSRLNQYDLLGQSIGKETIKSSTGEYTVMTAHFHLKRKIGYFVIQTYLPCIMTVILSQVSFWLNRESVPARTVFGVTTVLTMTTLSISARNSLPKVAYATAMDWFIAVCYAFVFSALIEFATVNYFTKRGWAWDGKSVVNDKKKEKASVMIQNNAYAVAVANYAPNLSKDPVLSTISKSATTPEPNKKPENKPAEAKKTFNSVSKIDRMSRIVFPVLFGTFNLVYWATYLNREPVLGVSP
T1 sequence (P47870 25-512 limits assumed): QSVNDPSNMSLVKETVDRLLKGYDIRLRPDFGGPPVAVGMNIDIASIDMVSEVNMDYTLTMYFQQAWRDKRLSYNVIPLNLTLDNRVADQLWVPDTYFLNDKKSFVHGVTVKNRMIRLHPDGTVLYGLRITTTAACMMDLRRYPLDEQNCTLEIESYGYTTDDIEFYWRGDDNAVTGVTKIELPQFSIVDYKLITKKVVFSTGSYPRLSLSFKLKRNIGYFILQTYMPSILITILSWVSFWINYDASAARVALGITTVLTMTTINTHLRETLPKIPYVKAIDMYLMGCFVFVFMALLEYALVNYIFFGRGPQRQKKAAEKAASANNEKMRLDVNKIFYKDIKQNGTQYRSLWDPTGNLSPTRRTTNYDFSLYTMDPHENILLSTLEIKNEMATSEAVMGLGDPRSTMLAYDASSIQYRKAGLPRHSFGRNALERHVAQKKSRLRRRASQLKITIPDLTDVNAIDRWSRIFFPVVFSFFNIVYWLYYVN
T1 sequence (P18507 40-467 isoform P18507-1 limits assumed): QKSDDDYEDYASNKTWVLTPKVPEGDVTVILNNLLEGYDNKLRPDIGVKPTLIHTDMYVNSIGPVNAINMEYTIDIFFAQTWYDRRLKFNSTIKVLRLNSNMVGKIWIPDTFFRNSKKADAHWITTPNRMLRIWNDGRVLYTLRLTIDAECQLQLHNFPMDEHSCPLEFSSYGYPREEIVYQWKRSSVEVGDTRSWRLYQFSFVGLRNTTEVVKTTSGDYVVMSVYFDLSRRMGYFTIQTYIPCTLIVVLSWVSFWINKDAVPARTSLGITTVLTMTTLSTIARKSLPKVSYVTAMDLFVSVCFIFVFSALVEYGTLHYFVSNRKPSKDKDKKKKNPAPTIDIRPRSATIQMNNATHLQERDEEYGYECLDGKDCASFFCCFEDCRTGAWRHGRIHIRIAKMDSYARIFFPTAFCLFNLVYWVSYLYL
T3 sequence (P34903 29-492 T215P): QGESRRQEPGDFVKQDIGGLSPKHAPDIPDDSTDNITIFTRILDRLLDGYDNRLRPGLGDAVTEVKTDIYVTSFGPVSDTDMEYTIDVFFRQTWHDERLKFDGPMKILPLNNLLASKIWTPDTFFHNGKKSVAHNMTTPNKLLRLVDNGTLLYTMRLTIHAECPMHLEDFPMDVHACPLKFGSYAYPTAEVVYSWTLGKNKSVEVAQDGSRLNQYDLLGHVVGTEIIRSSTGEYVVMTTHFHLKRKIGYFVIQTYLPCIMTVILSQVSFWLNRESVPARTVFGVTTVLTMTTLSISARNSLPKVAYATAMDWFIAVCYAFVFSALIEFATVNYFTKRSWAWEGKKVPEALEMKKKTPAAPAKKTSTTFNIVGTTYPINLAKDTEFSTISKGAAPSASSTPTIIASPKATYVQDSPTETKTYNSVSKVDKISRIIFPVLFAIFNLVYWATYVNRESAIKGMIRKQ
T3 sequence (P47870 25-512 limits assumed): as the sequence (P47870 25-512 limits assumed) above
T3 sequence (P18507 40-467 isoform P18507-1 limits assumed, stated change not applied): as the sequence (P18507 40-467 isoform P18507-1 limits assumed) above
T6 sequence (P31644 32-462 H136R): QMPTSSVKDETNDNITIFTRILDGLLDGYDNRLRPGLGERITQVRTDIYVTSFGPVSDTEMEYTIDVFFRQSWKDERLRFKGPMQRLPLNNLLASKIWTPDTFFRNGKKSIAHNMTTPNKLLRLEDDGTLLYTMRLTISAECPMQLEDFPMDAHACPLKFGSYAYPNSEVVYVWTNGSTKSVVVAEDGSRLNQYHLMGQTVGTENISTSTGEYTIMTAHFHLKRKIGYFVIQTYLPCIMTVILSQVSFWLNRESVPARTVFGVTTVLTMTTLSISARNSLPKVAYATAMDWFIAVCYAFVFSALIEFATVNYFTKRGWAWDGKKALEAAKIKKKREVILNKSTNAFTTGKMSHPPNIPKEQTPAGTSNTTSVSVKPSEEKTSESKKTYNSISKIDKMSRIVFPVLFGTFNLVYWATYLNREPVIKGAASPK
T6 sequence (P47870 26-474 isoform P47870-1 limits assumed, stated change not applied): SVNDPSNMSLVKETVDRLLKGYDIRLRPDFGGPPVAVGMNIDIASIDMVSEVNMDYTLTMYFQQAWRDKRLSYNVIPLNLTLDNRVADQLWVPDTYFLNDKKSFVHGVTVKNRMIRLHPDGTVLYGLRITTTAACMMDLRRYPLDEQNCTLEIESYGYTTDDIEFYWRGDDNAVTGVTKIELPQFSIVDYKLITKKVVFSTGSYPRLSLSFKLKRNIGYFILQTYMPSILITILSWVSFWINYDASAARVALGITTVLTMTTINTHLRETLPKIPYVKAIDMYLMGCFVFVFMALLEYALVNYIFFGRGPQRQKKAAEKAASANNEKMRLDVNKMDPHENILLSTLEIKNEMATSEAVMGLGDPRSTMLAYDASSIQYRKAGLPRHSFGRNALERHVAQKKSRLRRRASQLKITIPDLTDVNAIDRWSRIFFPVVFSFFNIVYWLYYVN
T6 sequence (P18507 40-467 isoform P18507-1 limits assumed, stated change not applied): as the sequence (P18507 40-467 isoform P18507-1 limits assumed) above
T7 sequence (P31644 32-462 P197T): as the sequence (P31644 32-462 H136R) above, with R105H, P166T counted along it
T7 sequence (P47870 26-474 isoform P47870-1 limits assumed, stated change not applied): as the sequence (P47870 26-474 isoform P47870-1 limits assumed, stated change not applied) above
T7 sequence (P18507 40-467 isoform P18507-1 limits assumed, stated change not applied): as the sequence (P18507 40-467 isoform P18507-1 limits assumed) above
T4 sequence (P48169 36-554 P196T): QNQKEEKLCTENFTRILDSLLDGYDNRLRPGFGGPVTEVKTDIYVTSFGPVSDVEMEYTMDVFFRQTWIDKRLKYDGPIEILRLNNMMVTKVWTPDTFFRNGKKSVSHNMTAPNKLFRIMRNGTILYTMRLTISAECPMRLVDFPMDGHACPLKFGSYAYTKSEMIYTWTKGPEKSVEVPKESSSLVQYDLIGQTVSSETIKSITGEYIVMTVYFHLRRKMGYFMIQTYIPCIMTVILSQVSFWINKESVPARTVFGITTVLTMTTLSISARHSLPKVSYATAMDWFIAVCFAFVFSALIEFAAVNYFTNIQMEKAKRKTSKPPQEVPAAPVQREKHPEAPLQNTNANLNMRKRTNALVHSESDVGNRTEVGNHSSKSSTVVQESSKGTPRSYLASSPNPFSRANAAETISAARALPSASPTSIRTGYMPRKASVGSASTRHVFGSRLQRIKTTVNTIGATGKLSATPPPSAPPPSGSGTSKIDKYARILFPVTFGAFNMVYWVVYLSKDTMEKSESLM
T4 sequence (P47870 26-474 isoform P47870-1 limits assumed, stated change not applied): as the sequence (P47870 26-474 isoform P47870-1 limits assumed, stated change not applied) above
T4 sequence (P18507 40-467 isoform P18507-1 limits assumed, stated change not applied): as the sequence (P18507 40-467 isoform P18507-1 limits assumed) above
T2 sequence (P34903 29-492 H154R): as the sequence (P34903 29-492 T215P) above, with H126R, P187T counted along it
T2 sequence (P47870 25-512 limits assumed): as the sequence (P47870 25-512 limits assumed) above
T2 sequence (P18507 40-467 isoform P18507-1 limits assumed, stated change not applied): as the sequence (P18507 40-467 isoform P18507-1 limits assumed) above
T5 sequence (P48169 36-554): as the sequence (P48169 36-554 P196T) above, with T161P counted along it
T5 sequence (P47870 26-474 isoform P47870-1 limits assumed): as the sequence (P47870 26-474 isoform P47870-1 limits assumed, stated change not applied) above
T5 sequence (P18507 40-467 isoform P18507-1 limits assumed): as the sequence (P18507 40-467 isoform P18507-1 limits assumed) above

## Cc1ncc2n1-c1ccc(Cl)cc1C(c1ccccc1F)=NC2 [midazolam]
α2β2γ2 GABAA receptor
  EC50: 50.9 ± 5.05 nM
α2β2γ2 GABAA receptor; 10 nM MDZ + EC10 GABA, α2β2γ2
  Midazolam potentiation (%): 19.47 ± 4.19%
α2β2γ2 GABAA receptor; 50 nM MDZ + EC10 GABA, α2β2γ2
  Midazolam potentiation (%): 69.08 ± 17.73%
α2β2γ2 GABAA receptor; 100 nM MDZ + EC10 GABA, α2β2γ2
  Midazolam potentiation (%): 128.98 ± 36.14%
α2β2γ2 GABAA receptor; 500 nM MDZ + EC10 GABA, α2β2γ2
  Midazolam potentiation (%): 167.38 ± 49.89%
α2β2γ2 GABAA receptor; 1000 nM MDZ + EC10 GABA, α2β2γ2
  Midazolam potentiation (%): 165.35 ± 48.98%
α2β2γ2 GABAA receptor; α2β2γ2, Hill fit, midazolam 10-1000 nM + EC10 GABA
  Max potentiation (%): 169.6 ± 49.9%
α2β2γ2 GABAA receptor; α2β2γ2, midazolam Hill fit
  Hill coefficient: 1.743 ± 0.133
[1]
  responsiveness to midazolam potentiation: abolished the ability of receptors to respond to midazolam potentiation
[1]; 10 nM MDZ + EC10 GABA
  Midazolam potentiation (%): 3.71 ± 1.31%
[1]; 50 nM MDZ + EC10 GABA
  Midazolam potentiation (%): 3.63 ± 2.06%
[1]; 100 nM MDZ + EC10 GABA
  Midazolam potentiation (%): 8.25 ± 1.64%
[1]; 500 nM MDZ + EC10 GABA
  Midazolam potentiation (%): 7.92 ± 2.84%
[1]; 1000 nM MDZ + EC10 GABA
  Midazolam potentiation (%): 10.78 ± 2.42%
[2]
  EC50: 55.2 ± 2.91 nM
[2]; 10 nM MDZ + EC10 GABA, α3(T187P)
  Midazolam potentiation (%): 23.71 ± 6.37%
[2]; 50 nM MDZ + EC10 GABA, α3(T187P)
  Midazolam potentiation (%): 92.47 ± 12.51%
[2]; 100 nM MDZ + EC10 GABA, α3(T187P)
  Midazolam potentiation (%): 168.56 ± 23.08%
[2]; 500 nM MDZ + EC10 GABA, α3(T187P)
  Midazolam potentiation (%): 212.97 ± 30.06%
[2]; 1000 nM MDZ + EC10 GABA, α3(T187P)
  Midazolam potentiation (%): 213.30 ± 30.99%
[2]; α3(T187P), Hill fit, midazolam 10-1000 nM + EC10 GABA
  Max potentiation (%): 219.6 ± 32.3%
[2]; α3(T187P), midazolam Hill fit
  Hill coefficient: 1.963 ± 0.224
[3]; 10 nM MDZ + EC10 GABA
  Midazolam potentiation (%): 13.22 ± 3.76%
[3]; 50 nM MDZ + EC10 GABA
  Midazolam potentiation (%): 10.31 ± 5.64%
[3]; 100 nM MDZ + EC10 GABA
  Midazolam potentiation (%): 14.28 ± 5.87%
[3]; 500 nM MDZ + EC10 GABA
  Midazolam potentiation (%): 21.94 ± 5.61%
[3]; 1000 nM MDZ + EC10 GABA
  Midazolam potentiation (%): 26.43 ± 9.72%
[3]; α4(P161T)β2γ2
  responsiveness to midazolam potentiation: failed to confer midazolam responsiveness
α4β2γ2 GABAA receptor; 10 nM MDZ + EC10 GABA
  Midazolam potentiation (%): 10.98 ± 3.61%
α4β2γ2 GABAA receptor; 50 nM MDZ + EC10 GABA
  Midazolam potentiation (%): 13.30 ± 4.65%
α4β2γ2 GABAA receptor; 100 nM MDZ + EC10 GABA
  Midazolam potentiation (%): 15.15 ± 4.85%
α4β2γ2 GABAA receptor; 500 nM MDZ + EC10 GABA
  Midazolam potentiation (%): 15.98 ± 5.42%
α4β2γ2 GABAA receptor; 1000 nM MDZ + EC10 GABA
  Midazolam potentiation (%): 17.89 ± 4.82%
α4β2γ2 GABAA receptor; wildtype α4β2γ2
  responsiveness to midazolam potentiation: no notable midazolam potentiation
[4]
  responsiveness to midazolam potentiation: abolished the ability of receptors to respond to midazolam potentiation
[4]; 10 nM MDZ + EC10 GABA
  Midazolam potentiation (%): 8.59 ± 4.39%
[4]; 50 nM MDZ + EC10 GABA
  Midazolam potentiation (%): 7.73 ± 4.67%
[4]; 100 nM MDZ + EC10 GABA
  Midazolam potentiation (%): 8.00 ± 4.85%
[4]; 500 nM MDZ + EC10 GABA
  Midazolam potentiation (%): 5.65 ± 3.99%
[4]; 1000 nM MDZ + EC10 GABA
  Midazolam potentiation (%): 8.17 ± 4.66%
[5]
  EC50: 53.3 ± 5.54 nM
[5]; 10 nM MDZ + EC10 GABA, α5(P166T)
  Midazolam potentiation (%): 13.32 ± 1.68%
[5]; 50 nM MDZ + EC10 GABA, α5(P166T)
  Midazolam potentiation (%): 54.02 ± 5.66%
[5]; 100 nM MDZ + EC10 GABA, α5(P166T)
  Midazolam potentiation (%): 106.37 ± 15.09%
[5]; 500 nM MDZ + EC10 GABA, α5(P166T)
  Midazolam potentiation (%): 134.76 ± 21.59%
[5]; 1000 nM MDZ + EC10 GABA, α5(P166T)
  Midazolam potentiation (%): 141.51 ± 25.59%
[5]; α5(P166T), Hill fit, midazolam 10-1000 nM + EC10 GABA
  Max potentiation (%): 140.7 ± 23.7%
[5]; α5(P166T), midazolam Hill fit
  Hill coefficient: 3.661 ± 1.897
